Experimental findings from article PMC5643135, “Crystallographic and thermodynamic characterization of phenylaminopyridine bisphosphonates binding to human farnesyl pyrophosphate synthase” (PLoS ONE, 2017) are described below.

As a reminder, the Kd is the equilibrium constant for the complex coming apart. Read a low Kd as tighter binding.

The target of the assay is T1, human farnesyl pyrophosphate synthase (hFPPS) (Homo sapiens, UniProt P14324).
T1 construct: gene FDPS; purified protein, homodimer, subunit 42 kDa
T1 sequence (P14324 1-353 isoform P14324-2): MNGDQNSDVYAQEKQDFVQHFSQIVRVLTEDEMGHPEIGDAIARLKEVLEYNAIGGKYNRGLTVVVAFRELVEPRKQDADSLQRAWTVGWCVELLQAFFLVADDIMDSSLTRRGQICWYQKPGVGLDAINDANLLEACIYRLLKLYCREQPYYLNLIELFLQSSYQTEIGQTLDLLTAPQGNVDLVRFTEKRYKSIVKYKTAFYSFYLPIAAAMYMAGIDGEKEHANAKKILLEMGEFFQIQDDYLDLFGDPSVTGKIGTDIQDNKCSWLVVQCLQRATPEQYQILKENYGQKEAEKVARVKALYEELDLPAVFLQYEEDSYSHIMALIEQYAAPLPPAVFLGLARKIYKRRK
As to the kind of experiment: ITC, one-site model. It is filed as binding. The text has this: ITC, one-site model on human farnesyl pyrophosphate synthase (hFPPS)
Background: Isothermal titration calorimetry measures the heat released or taken up as one component is titrated into another.

`O=P(O)(O)C(Nc1cncc(-c2ccc(OC3CC3)cc2)c1)P(=O)(O)O` [JDS05120] returned a Kd of 120 ± 36 nM.
